Experimental data published in ChEMBL document CHEMBL1156718, “Synthesis of novel aminoquinonoid analogues of diospyrin and evaluation of their inhibitory activity against murine and human cancer cells” (Eur J Med Chem, 2008).
The source made the active and inactive calls. The calls are words filed in the database; no cut-off is given here.

Experiments:
[1] = test system: Ehrlich; assay: Antitumor activity against mouse Ehrlich ascites carcinoma cells xenografted in Swiss A mouse assessed as increase in survival time at 1 mg/kg, ip administered five doses in alternate days; format: functional; parameters: unit not given here; conditions: route intraperitoneal
[2] = test system: Ehrlich; assay: Antitumor activity against mouse Ehrlich ascites carcinoma cells xenografted in Swiss A mouse assessed as inhibition of tumor growth at 1 mg/kg, ip administered five doses in alternate days measured after 16 days; format: functional; parameters: unit not given here; conditions: route intraperitoneal
[3] = test system: Ehrlich; assay: Antitumor activity against mouse Ehrlich ascites carcinoma cells xenografted in Swiss A mouse assessed as increase in life span at 1 mg/kg, ip administered five doses in alternate days relative to control; format: functional; conditions: route intraperitoneal
[4] = test system: Mus musculus; assay: Effect on serum LDH activity in Swiss A mouse xenografted with mouse Ehrlich ascites carcinoma cells assessed as LDH unit at 1 mg/kg, ip administered five doses in alternate days measured after 16 days relative to control; format: functional; parameters: unit not given here; conditions: route intraperitoneal
[5] = test system: Mus musculus; assay: Effect on alkaline phosphatase activity in Swiss A mouse xenografted with mouse Ehrlich ascites carcinoma cells assessed as umole of PNPP hydrolysed per minute per decilitre of serum at 1 mg/kg, ip administered five doses in alternate days measured after 16 days relative to control; format: functional; parameters: unit: umol/min/dL; conditions: route intraperitoneal
[6] = test system: Ehrlich; assay: Cytotoxicity against mouse Ehrlich ascites carcinoma cells after 24 hrs by MTT assay; format: functional, cell-based
[7] = test system: A-375; assay: Cytotoxicity against human A375 cells after 24 hrs by MTT assay; format: functional, cell-based; conditions: A-375, 24 h
[8] = test system: HEp-2; assay: Cytotoxicity against human Hep2 cells after 24 hrs by MTT assay; format: functional, cell-based; conditions: HEp-2, 24 h
[9] = test system: PBMC; assay: Cytotoxicity against human PBMC cells after 24 hrs by MTT assay; format: cell-based
[10] = test system: Ehrlich; assay: Induction of apoptosis in mouse Ehrlich ascites carcinoma cells assessed as intracellular ROS generation after 1 hr; format: functional, cell-based
[11] = test system: HL-60; assay: Cytotoxicity against human HL60 cells by MTT assay; format: functional, cell-based
[12] = test system: K562; assay: Cytotoxicity against human K562 cells by MTT assay; format: functional, cell-based
[13] = test system: MCF7; assay: Cytotoxicity against human MCF7 cells by MTT assay; format: functional, cell-based
[14] = test system: A-431; assay: Cytotoxicity against human A431 cells by MTT assay; format: functional, cell-based
[15] = test system: Ehrlich; assay: Induction of apoptosis in mouse Ehrlich ascites carcinoma cells assessed as intracellular ROS generation at 0.4 uM after 1 hr by measuring increase in fluorescent intensity relative to control; format: functional
[16] = test system: Ehrlich; assay: Induction of apoptosis in mouse Ehrlich ascites carcinoma cells assessed as intracellular ROS generation at 0.4 uM after 1 hr by measuring increase in fluorescent intensity relative to control in presence of N-acetyl L-cysteine; format: functional, cell-based
[17] = Toxicity in single ip dosed Swiss A mouse; format: organism-based; conditions: in vivo
[18] = test system: Ehrlich; assay: Antitumor activity against mouse Ehrlich ascites carcinoma cells xenografted in Swiss A mouse assessed as restoration of lymphocyte infiltration and sinusoid dilation at 1 mg/kg, ip administered five doses in alternate days measured after 16 days by histopathological study relative to untreated control; format: functional, organism-based; parameters: dose 1 mg/kg
[19] = test system: Mus musculus; assay: Toxicity in Swiss A mouse xenografted with mouse Ehrlich ascites carcinoma cells assessed as food and water intake at 1 mg/kg, ip administered five doses in alternate days measured after 16 days; format: organism-based; parameters: dose 1 mg/kg, route intraperitoneal; conditions: in vivo, 384 h
[20] = test system: PBMC; assay: Selectivity ratio of IC50 for human A375 cells to IC50 for human PBMC cells
[21] = test system: PBMC; assay: Selectivity ratio of IC50 for human Hep2 cells to IC50 for human PBMC cells
[22] = test system: PBMC; assay: Selectivity ratio of IC50 for mouse Ehrlich ascites carcinoma to IC50 for human PBMC cells

SMILES	Activity [1]	Activity [2]	Activity [3]	Activity [4]	Activity [5]	IC50 [6]	IC50 [7]	IC50 [8]	IC50 [9]	Activity [10]	IC50 [11]	IC50 [12]	IC50 [13]	IC50 [14]	LD50 [17]	other results
COc1cc(C)cc2c1C(=O)C=C(c1c(C)cc3c(c1OC)C(=O)C(N)=CC3=O)C2=O	31.5	3.4	72%	34.7	4.4	350 nM	3240 nM	3510 nM	> 100000 nM	Dose-dependent effect	–	–	–	–	–	–
COc1cc(C)cc2c1C(=O)C=C(c1c(C)cc3c(c1OC)C(=O)C(Nc1ccc(Cl)cc1)=CC3=O)C2=O	34.3	2.7	69%	25.5	6.4	250 nM	630 nM	650 nM	44900 nM	Dose-dependent effect	–	–	–	–	–	–
COc1cc(C)cc2c1C(=O)C(N)=C(c1c(C)cc3c(c1OC)C(=O)C(N)=CC3=O)C2=O	30	3.9	62%	37.5	4.9	370 nM	1930 nM	2340 nM	40600 nM	–	–	–	–	–	–	–
COc1cc(C)cc2c1C(=O)C=C(c1c(C)cc3c(c1OC)C(=O)C(Nc1ccc4ccccc4c1)=CC3=O)C2=O	34	2.9	67%	23.5	5.4	240 nM	80 nM	2040 nM	73800 nM	Dose-dependent effect	–	–	–	–	–	–
CCOc1cc(C)cc2c1C(=O)C=C(c1c(C)cc3c(c1OCC)C(=O)C=CC3=O)C2=O	–	–	–	–	–	–	–	–	–	–	30100 nM	40200 nM	19000 nM	15900 nM	–	–
CCOC(=O)CNC1=CC(=O)c2cc(C)c(C3=CC(=O)c4c(OC)cc(C)cc4C3=O)c(OC)c2C1=O	34.9	2.3	81%	24.6	5.9	90 nM	570 nM	860 nM	96200 nM	Dose-dependent effect	–	–	–	–	–	Activity [15]: 9; Activity [16]: inactive
COc1cc(C)cc2c1C(=O)C=C(c1c(C)cc3c(c1OC)C(=O)C(NCc1ccccc1)=CC3=O)C2=O	28.4	3	47%	31.8	3.1	1410 nM	550 nM	2610 nM	> 100000 nM	Dose-dependent effect	–	–	–	–	–	–
COc1cc(C)cc2c1C(=O)C=C(c1c(C)cc3c(c1OC)C(=O)C=CC3=O)C2=O	29.8	2.9	57%	25.5	4.9	–	–	–	–	–	64100 nM	> 100000 nM	46400 nM	28200 nM	45 mg/kg	–
Cc1cc(O)c2c(c1)C(=O)C(c1c(C)cc3c(c1O)C(=O)C=CC3=O)=CC2=O [DIOSPYRIN]	23.2	4.3	36%	16.3	3.7	–	–	–	–	–	> 100000 nM	> 100000 nM	74800 nM	65300 nM	25 mg/kg	–
COc1cc(C)cc2c1C(=O)C=C(c1c(C)cc3c(c1OC)C(=O)C(NC(C)=O)=CC3=O)C2=O	35.7	3.3	93%	26.3	5.5	60 nM	60 nM	920 nM	86500 nM	–	–	–	–	–	> 60 mg/kg	Activity [18]: Active; Activity [19]: Non-toxic; Activity [15]: 9; Activity [16]: inactive; Selectivity ratio [20]: 100; Selectivity ratio [21]: 100; Selectivity ratio [22]: 100
